Where only a bound is given, the exact number is not on record here.

The EC50 is the concentration needed to bring the measured effect to its halfway point.

For one assay, the target named is T1, mGluR2 receptor (metabotropic glutamate receptor 2) (Homo sapiens, UniProt Q14416).
T1 construct: expressed in transfected cells
T1 sequence (Q14416 19-872, species assumed): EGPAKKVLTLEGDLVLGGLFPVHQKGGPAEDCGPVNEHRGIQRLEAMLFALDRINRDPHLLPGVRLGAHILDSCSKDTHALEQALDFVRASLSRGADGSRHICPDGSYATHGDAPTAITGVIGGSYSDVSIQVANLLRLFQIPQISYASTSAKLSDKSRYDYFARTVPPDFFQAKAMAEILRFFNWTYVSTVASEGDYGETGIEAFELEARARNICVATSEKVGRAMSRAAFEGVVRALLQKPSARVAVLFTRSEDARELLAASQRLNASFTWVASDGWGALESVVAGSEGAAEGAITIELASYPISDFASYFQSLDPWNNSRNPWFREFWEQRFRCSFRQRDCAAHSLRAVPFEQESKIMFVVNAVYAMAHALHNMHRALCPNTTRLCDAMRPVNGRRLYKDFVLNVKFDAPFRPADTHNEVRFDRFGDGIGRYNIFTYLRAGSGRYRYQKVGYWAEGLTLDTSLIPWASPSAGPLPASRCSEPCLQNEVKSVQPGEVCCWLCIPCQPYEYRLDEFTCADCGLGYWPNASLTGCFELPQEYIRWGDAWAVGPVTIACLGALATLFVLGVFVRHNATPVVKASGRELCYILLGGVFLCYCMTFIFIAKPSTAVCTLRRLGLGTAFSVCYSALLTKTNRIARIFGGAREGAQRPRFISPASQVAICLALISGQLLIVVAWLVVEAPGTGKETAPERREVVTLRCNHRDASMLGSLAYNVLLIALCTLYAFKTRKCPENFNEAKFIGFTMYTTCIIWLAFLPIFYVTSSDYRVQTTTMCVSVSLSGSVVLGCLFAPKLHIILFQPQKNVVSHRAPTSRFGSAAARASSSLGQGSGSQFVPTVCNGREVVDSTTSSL
The assay is described as follows: mGluR2 Potentiator Screen, FLIPR, EC10-EC20 glutamate challenge. Format: cell-based.
Settings: not given
The protocol:
Procedure for mGluR2 Potentiator Screen NLB methods EC10-EC20 Challenge Cell Culture and Plating:
Cells used for this screen are HEK cells stably transfected with the mGluR2 receptor (metabotropic glutamate receptor 2) and the Gα15 G protein. Clones were identified by functional activity (FLIPR). Cells are grown in growth media containing: DMEM High Glucose with Glutamine and Na Pyruvate (GIBCO), 10% (v/v) Heat inactivate FBS (GIBCO), G418 500 ug/ml (from 50 mg/ml stock) (GIBCO) and Blasticidin 3 ug/ml (from 5 mg/ml stock made in H2O) (Invitrogen).
2 days before the assay cell are trypsinized with 0.25% trysin/EDTA (GIBCO), spun down at 1000 rpm for 5 minutes, resuspended in growth media and plated on polystyrene 384 well black wall 1 clear bottom poly-D-lysine coated plates at a density of approximately 18,000 cells/well in a volume of 50 μL per well. One day before the assay the growth media is removed from the plates by flicking, and replaced with media containing DMEM High Glucose without Glutamine and Na Pyruvate (GIBCO) and 10% (v/v) dialyzed FBS (GIBCO). The reason for the removal of glutamine the day before the assay is to minimize the amount of glutamate that will be present during the assay, as endogenous glutarnate released from the cells can reduce the fluorescent response and interfere with the FLIPR screen.
FLIPR Methods and Data Analysis:
On the day of the assay, the FLIPR assay is performed using the following methods.
The pH is adjusted to 7.4 with 1 M NaOH. Prepare a 2 mM (approx.) stock solution of Fluo-4,am (Molecular Probes) dye in DMSO-22 μl DMSO per 50 ug vial (440 μL per 1 mg vial). Make a 1 mM (approx.) flou-4, PA working solution per vial by adding 22 μl of 20% pluronic acid (PA), (Molecular Probes) in DMSO to each 50 ug vial (440 μL per 1 mg vial). Prepare a 250 mM Probenecid (Sigma) stock solution by dissolving 0.71 g into 5 ml 1N NaOH and 5 ml assay buffer (for each liter of assay wash buffer)L Make 4 uM (approx.) dye incubation media by adding […] per 11 ml DMEM high glucose without glutamine (220 ml per 1 mg vial). Add 110 μL probenecid stock per 11 ml (2.5 mM final [concentration]). To the dye media add 3 units/ml of glutamic-pyruvic transaminase (GPT, Sigma) and 3 mM Na Pyruvate. The assay has worked with dye concentrations from 2 uM to 8 uM dye as well. To the assay buffer from drug preparation, add 1.83 mls DMSO and 400 μL 15.8% P104 (from New Leads biology) per liter for final concentrations of 0.18% DMSO and 0.006% P104. To the assay buffer for cell washing, add probenecid in the same manner and concentration that was used for the dye media.
Remove growth media from cell plates by flicking. Add 50 μl/well dye solution. Incubate 1 hour at 37° C. and 5% CO2. Remove dye solution and wash 3 times with assay buffer+probenecid (100 μl probenecid stock per 10 ml buffer), leaving 30 μL/well assay buffer. Wait at least 10-15 minutes. Compounds and agonist challenge additions are performed with the FLIPR. The 1st addition is for test compounds, which are added as 15 μL of 4×[concentration] of potentiator. The second 2nd addition is 15 μL of 4×[concentration] of agonist or challenge. This achieves 1× concentration of all compounds only after 2nd addition. The 1st and 2nd additions are performed separately using the FLIPR, which give 2 different data files. Compounds are pretreated at least 30 minutes before agonist addition,
Results are analyzed by dividing the peak fluorescent value of the FLIPR response by the […] to achieve a ratio response. The ratios are then analyzed by curve fitting programs. […] Maximum values for dose response curves (forced fitting) are derived from standards on the plate.
Compound Preparation and Glutamate Challenge:
Compounds are delivered as 10 mM DMSO stocks or as powders, Powders are solubilized in DMSO at 10 mM (as solubility allows). Compounds are sonicated in a heated water bath (35-40° C.) for at least 20 minutes.
Turning to `Cn1c(CN2CCC(F)(c3ccc(C(F)(F)F)cc3)CC2)nc2ncccc21` [compound 99], the EC50 is 434 nM.
`C[C@@H]1CN(Cc2nc3cnccc3n2C)CC[C@@H]1c1ccc(C(F)(F)F)cc1Cl` (single isomer, unassigned) [compound 172]: the EC50 stood at 48.5 nM.
Still for that read-out and setting: to `C[C@@H]1CN(Cc2nc3cnccc3n2C)CC[C@@H]1c1ccc(C(F)(F)F)c(F)c1` (single isomer, unassigned) [compound 183] belongs 53.2 nM; to `CC(C)Oc1ccc([C@H]2CCN(Cc3nc4ncccc4n3C)C[C@H]2C)c(F)c1` (relative stereo) [compound 166], 82.3 nM; to `COc1cc(F)ccc1C1CCN(Cc2nc3cnccc3n2C)CC1` [compound 88], 372 nM.
On to `C[C@@H]1CN(Cc2nc3cnccc3n2C)CC[C@@H]1c1ccc(C(F)(F)F)cc1F` (single isomer, unassigned) [compound 144], for which the EC50 is 23 nM.
In the case of `Cc1cc(OC(F)(F)F)ccc1[C@H]1CCN(Cc2nc3ncccc3n2C)C[C@H]1C` (relative stereo) [compound 164], the EC50 was less than 74.3 nM.
On to `COc1ccccc1C1CCN(Cc2nc3ncccc3n2C)CC1C` (centres unmarked) [compound 60], for which the EC50 is 302 nM.
For `COc1ccccc1C1CCN(Cc2nc3cnccc3n2C)CC1` [compound 46], the EC50 was determined as 1450 nM.
With `C[C@@H]1CN(Cc2nc3ncccc3n2C)CC[C@@H]1c1cc(F)c(F)cc1F` (relative stereo) [compound 179], the EC50 was found to be 381 nM.
Consider `CC(C)Oc1ccc([C@H]2CCN(Cc3nc4cnccc4n3C)C[C@H]2C)c(Cl)c1` (relative stereo) [compound 170], for which the EC50 was found to be 284 nM.
Take `Cn1c(CN2CCC(c3ccccc3C(F)(F)F)CC2)nc2ncccc21` [compound 53]: the EC50 was found to be 105 nM.
As to `Cc1ccc([C@H]2CCN(Cc3nc4ncccc4n3C)C[C@H]2C)c(Cl)c1` (relative stereo) [compound 210], the EC50 stood at 62.6 nM.
On the same count and under the same terms, to `CC(C)Oc1ccc([C@H]2CCN(Cc3nc4cnccc4n3C)C[C@H]2C)c(F)c1` (single isomer, unassigned) [compound 219] belongs 60.6 nM; to `C[C@@H]1CN(Cc2nc3cnccc3n2C)CC[C@@H]1c1ccc(OC(F)(F)F)cc1` (single isomer, unassigned) [compound 175], more than 3200 nM.
Take `CC(C)Oc1ccc([C@H]2CCN(Cc3nc4ncccc4n3C)C[C@H]2C)cc1F` (relative stereo) [compound 182]: the EC50 was found to be 577 nM.
Turning to `C[C@@H]1CN(Cc2nc3ncccc3n2C)CC[C@@H]1c1ccc(OC(F)F)cc1` (relative stereo) [compound 177], the EC50 is 429 nM.
For `CC(C)Oc1ccc([C@H]2CCN(Cc3nc4ncccc4n3C)C[C@H]2C)c(F)c1` (single isomer, unassigned) [compound 217], the EC50 came out at 29.8 nM.
For the compound `C[C@@H]1CN(Cc2nc3cnccc3n2C)CC[C@@H]1c1ccccc1F` (single isomer, unassigned) [compound 73], the EC50 was 242 nM.
Take `Cn1c(CN2CCC(c3cc(C(F)(F)F)cc(C(F)(F)F)c3)CC2)nc2ncccc21` [compound 65]: the EC50 worked out at 144 nM.
The same measure, in the same setting: to `C[C@@H]1CN(Cc2nc3cnccc3n2C)CC[C@@H]1c1ccc(Cl)cc1F` (relative stereo) [compound 116] belongs 49.8 nM.
Consider `C[C@@H]1CN(Cc2nc3ncccc3n2C)CC[C@@H]1c1ccc(C(F)(F)F)cc1` (single isomer, unassigned) [compound 119], for which the EC50 was more than 1990 nM.
Turning to `C[C@@H]1CN(Cc2nc3cnccc3n2C)CC[C@@H]1c1ccc(C(F)(F)F)cc1Cl` (single isomer, unassigned) [compound 171], the EC50 stood at 1520 nM.
Take `COc1ccc(Cl)cc1C1CCN(Cc2nc3ncccc3n2C)CC1` [compound 43]: the EC50 was determined as 203 nM.
With `COc1ccccc1C1CCN(Cc2nc3ncccc3n2C)CC1` [compound 51], the EC50 is 1540 nM.
For the compound `C[C@@H]1CN(Cc2nc3cnccc3n2C)CC[C@@H]1c1cc(F)c(F)cc1F` (single isomer, unassigned) [compound 225], the EC50 turned out to be 95 nM.
Same read-out and setting: to `C[C@@H]1CN(Cc2nc3cnccc3n2C)CC[C@@H]1c1ccc(C(F)(F)F)c(F)c1` (single isomer, unassigned) [compound 184] belongs more than 2710 nM; to `CC(C)Oc1cc(F)ccc1[C@H]1CCN(Cc2nc3ncccc3n2C)C[C@H]1C` (relative stereo) [compound 191], 610 nM.
With `Cn1c(CN2CCC(c3ccc(Cl)c(F)c3)CC2)nc2ncccc21` [compound 106], the EC50 was 190 nM.
As for `CC(C)Oc1ccc([C@H]2CCN(Cc3nc4cnccc4n3C)C[C@H]2C)cc1F` (relative stereo) [compound 181], the EC50 worked out at 1090 nM.
`CCCOc1ccc(Cl)cc1C1CCN(Cc2nc3ncccc3n2C)CC1` [compound 38]: the EC50 came out at 392 nM.
With `COc1cc(C(F)(F)F)ccc1[C@H]1CCN(Cc2nc3ncccc3n2C)C[C@H]1C` (relative stereo) [compound 114], the EC50 came out at 42.8 nM.

Staying with this assay, now noted: mGluR2 potentiator screen, FLIPR, EC10-EC20 glutamate challenge.
Consider `C[C@@H]1CN(Cc2nc3cnccc3n2C)CC[C@@H]1c1ccc(F)cc1C(F)(F)F` (relative stereo) [compound 258], for which the EC50 turned out to be 125 nM.
As for `C[C@@H]1CN(Cc2nc3ncccc3n2C)CC[C@@H]1c1ccc(OC(F)F)cc1F` (relative stereo) [compound 257], the 50% effective concentration (EC50) was determined as 67.7 nM.
Regarding `C[C@@H]1CN(Cc2nc3ncccc3n2C)CC[C@@H]1c1ccc(OC(F)F)cc1Cl` (single isomer, unassigned) [compound 244], the EC50 was determined as 36 nM.
`C[C@@H]1CN(Cc2nc3ncccc3n2C)CC[C@@H]1c1ccc(C(F)(F)F)c(Cl)c1` (relative stereo) [compound 234]: the EC50 was determined as 101 nM.
On the same count and under the same terms, to `COc1cc(OC(F)(F)F)ccc1C1CCN(Cc2nc3cnccc3n2C)CC1` [compound 280] belongs 33.9 nM.
On to `C[C@@H]1CN(Cc2nc3ncccc3n2C)CC[C@@H]1c1ccc(F)cc1OC(F)F` (relative stereo) [compound 274], for which the EC50 was 75.5 nM.
The same measure, in the same setting: to `C[C@@H]1CN(Cc2nc3cnccc3n2C)CC[C@@H]1c1ccc(OC(F)F)cc1Cl` (single isomer, unassigned) [compound 246] belongs 99.9 nM; to `Cn1c(CN2CCC(c3ccc(OC(F)F)cc3)CC2)nc2ncccc21` [compound 264], 554 nM; to `Cn1c(CN2CCC(c3ccc(C(F)(F)F)cc3F)CC2)nc2cnccc21` [compound 236], 50.8 nM.
On to `Cc1cc(C(F)(F)F)ccc1C1CCN(Cc2nc3cnccc3n2C)CC1` [compound 242], for which the EC50 stood at 85.8 nM.
For `COc1cc(OC(F)(F)F)ccc1C1CCN(Cc2nc3ncccc3n2C)CC1` [compound 281], the EC50 was found to be 99.7 nM.
On the same count and under the same terms, to `CC(C)Oc1ccc(C2CCN(Cc3nc4ncccc4n3C)CC2)c(Cl)c1` [compound 269] belongs 65.7 nM; to `CC(C)Oc1ccc(C2CCN(Cc3nc4cnccc4n3C)CC2)c(F)c1` [compound 261], 125 nM; to `COc1cc(F)ccc1[C@H]1CCN(Cc2nc3cnccc3n2C)C[C@H]1C` (single isomer, unassigned) [compound 260], 125 nM.
Regarding `C[C@@H]1CN(Cc2nc3cnccc3n2C)CC[C@@H]1c1ccc(OC(F)(F)F)cc1Cl` (single isomer, unassigned) [compound 253], the concentration for a half-maximal effect (EC50) turned out to be 1820 nM.
